Measurements from ChEMBL document CHEMBL2040788, “Expanded Utility of the β-Glucuronide Linker: ADCs That Deliver Phenolic Cytotoxic Agents” (ACS Med Chem Lett, 2010).

Legend:
[1] = Cytotoxicity against CD70 deficient human L540cy cells expressing CD30 after 96 hrs; assay type: functional, cell-based
[2] = Chemical stability of the compound; assay type: physicochemical
CAKI-1 = assay: Cytotoxicity against CD30 deficient human Caki1 cells expressing CD70 after 96 hrs; assay type: functional, cell-based; settings: CAKI-1, 96 h

## C=C(C)CC(OC)[C@H](O)C(=O)N[C@@H](OC)[C@@H]1C[C@@H](O)C(C)(C)[C@@H](C[C@H](O)[C@@H](C)[C@H]2Cc3c(C)c(O)cc(O)c3C(=O)O2)O1 (stereo partly drawn) [IRCINIASTATIN A]
[1]
  IC50: 700 pM
[2]
  Stability: Stable
CAKI-1
  IC50: 300 pM
